From article PMC4648050, “Discovery of Inhibitors of Trypanosoma brucei by Phenotypic Screening of a Focused Protein Kinase Library” (Chemmedchem, 2015)
Where two headings read alike, the source gives them in different places.

How the values were obtained:
T. b. brucei = test: Trypanosome proliferation assay; format: cell-based, Trypanosoma brucei brucei; details: geometric mean of two or more determinations, standard cell viability (resazurin) assay, read-out: EC50 T. b. brucei
Method: Trypanosome and MRC5 proliferation assay: Measurement of inhibition of the proliferation of MRC5 cells (human lung fibroblasts) and T. brucei bloodstream-stage cells was performed using a modification of a cell viability assay previously described.[35, 36] Compounds ([…] to 0.5 nM) were incubated with 2×10^3 cells per well in 0.2 mL of the appropriate culture medium (MEM with 10 % foetal bovine serum for MRC5 cells) in clear 96-well plates. Plates were incubated at 37 °C in the presence of 5 % CO2 for 69 h. Resazurin was then added to a final concentration of 50 μM, and plates were incubated as above for a further 4 h before being read on a BioTek Flx800 fluorescence plate reader.

[1] = Plasma protein binding (equilibrium dialysis); format: in vitro ADME; details: mouse plasma
Method: Plasma protein binding experiments: In brief, a 96-well equilibrium dialysis apparatus was used to determine the free fraction in plasma for each compound (HT Dialysis LLC, Gales Ferry, CT, USA). Membranes (12-14 kDa cutoff) were conditioned in deionised H2O for 60 min, followed by conditioning in 80:20 deionised H2O/EtOH for 20 min, and then rinsed in isotonic buffer before use. Female CD1 mouse plasma was removed from the freezer and allowed to thaw on the day of experiment. Thawed plasma was then centrifuged (Allegra […], Beckman Coulter, USA), spiked with test compound (10 μg g^-1), and 150 μL aliquots (n=6 replicate determinations) loaded into the 96-well equilibrium dialysis plate. Dialysis against isotonic buffer (150 μL) was carried out for 5 h in a temperature-controlled incubator at ∼37 °C (Barworld Scientific Ltd., UK) using an orbital microplate shaker at 125 rpm (Barworld Scientific). At the end of the incubation period, aliquots of plasma or buffer were transferred to micronic tubes (Micronic B.V., the Netherlands), and the composition in each tube was balanced with control fluid such that the volume of buffer to plasma is the same. Sample extraction was performed by the addition of 400 μL MeCN containing an appropriate internal standard. Samples were allowed to mix for 1 min and then centrifuged at 3000 rpm in 96-well blocks for 15 min (Allegra […], Beckman Coulter, USA). All samples were analysed by UPLC-MS/MS on a Quattro Premier XE Mass Spectrometer (Waters Corp.). The unbound fraction was determined as the ratio of the peak area in buffer to that in plasma.

[2] = In vivo pharmacokinetics in mice; design: species or system female NMRI mice; details: for Tmax: female, NMRI; for Tmax / Cmax / half-life / AUC(0-t): mouse, whole blood, blood; for AUC(0-t): read-out: AUC(0–8) (converted)
Method: In vivo pharmacokinetics in mice: Compounds 1 and 28 were dosed orally by gavage as a solution at 5 mg free base per kg or 20 mg free base per kg, respectively (dose volume: 5 or 10 mL kg^−1, dose vehicle: 5 % DMSO, 40 % PEG400, 55 % distilled H2O) to female NMRI mice (n=3). Compounds 28, 38, and 56 were dosed as a bolus solution intraperitoneally at 10 (56) or 20 (28 and 38) mg free base per kg (dose volume: 10 mL kg^−1, dose vehicle: 5 % DMSO, 40 % PEG400, 55 % sterile H2O) to female NMRI mice (n=3). Female NMRI mice were chosen, as these represent the sex and strain used for the stage-1 and stage-2 HAT efficacy models. Blood samples were taken from each mouse at 5 (i.p. only), 15 and 30 min, 1, 2, 4, 6 and 8 h post-dose and mixed with two volumes of distilled H2O. After suitable sample preparation, the concentration of each compound in blood was determined by UPLC–MS/MS using a Quattro Premier XE (Waters, USA). Pharmacokinetic parameters were derived from the mean blood concentration time curve using PKsolutions software ver. 2.0 (Summit Research Services, USA).

P38b MAPK = P38b MAPK (Homo sapiens, UniProt Q15759); test: Kinase panel: P38b MAPK; format: biochemical, human/mammalian; details: compound at 10 μM, read-out: % of activity respect of the control
P38b MAPK, sequence (Q15759 whole entry): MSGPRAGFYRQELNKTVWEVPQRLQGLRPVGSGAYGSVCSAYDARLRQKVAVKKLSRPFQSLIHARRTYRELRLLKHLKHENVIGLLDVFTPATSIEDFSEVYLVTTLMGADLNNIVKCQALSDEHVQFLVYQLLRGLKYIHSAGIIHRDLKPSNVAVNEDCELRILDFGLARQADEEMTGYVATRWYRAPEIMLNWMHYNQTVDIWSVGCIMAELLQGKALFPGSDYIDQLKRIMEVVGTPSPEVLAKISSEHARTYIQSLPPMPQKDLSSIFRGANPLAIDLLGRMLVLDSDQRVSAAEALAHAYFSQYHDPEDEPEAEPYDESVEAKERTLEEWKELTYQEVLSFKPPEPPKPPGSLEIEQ
Method: (§1) The DDU kinase-focused compound set contains lead-like scaffolds that are designed to target protein kinases; they have kinase hinge binding motifs. Four of the 1H-imidazopyrazinones were screened against a human/mammalian kinase panel at the University of Dundee (http://www.kinase-screen.mrc.ac.uk) at a concentration of 10 μM. At the time of testing the panel contained 79 mammalian kinases selected to provide a broad coverage of the mammalian kinome (∼500 kinases in the human genome).[3] None of the compounds were active against any of the kinases at 10 μM.

RSK2 = RSK2 (Homo sapiens, UniProt P51812); test: Kinase panel: RSK2; format: biochemical, human/mammalian; details: compound at 10 μM, read-out: % of activity respect of the control
RSK2, sequence (P51812 whole entry): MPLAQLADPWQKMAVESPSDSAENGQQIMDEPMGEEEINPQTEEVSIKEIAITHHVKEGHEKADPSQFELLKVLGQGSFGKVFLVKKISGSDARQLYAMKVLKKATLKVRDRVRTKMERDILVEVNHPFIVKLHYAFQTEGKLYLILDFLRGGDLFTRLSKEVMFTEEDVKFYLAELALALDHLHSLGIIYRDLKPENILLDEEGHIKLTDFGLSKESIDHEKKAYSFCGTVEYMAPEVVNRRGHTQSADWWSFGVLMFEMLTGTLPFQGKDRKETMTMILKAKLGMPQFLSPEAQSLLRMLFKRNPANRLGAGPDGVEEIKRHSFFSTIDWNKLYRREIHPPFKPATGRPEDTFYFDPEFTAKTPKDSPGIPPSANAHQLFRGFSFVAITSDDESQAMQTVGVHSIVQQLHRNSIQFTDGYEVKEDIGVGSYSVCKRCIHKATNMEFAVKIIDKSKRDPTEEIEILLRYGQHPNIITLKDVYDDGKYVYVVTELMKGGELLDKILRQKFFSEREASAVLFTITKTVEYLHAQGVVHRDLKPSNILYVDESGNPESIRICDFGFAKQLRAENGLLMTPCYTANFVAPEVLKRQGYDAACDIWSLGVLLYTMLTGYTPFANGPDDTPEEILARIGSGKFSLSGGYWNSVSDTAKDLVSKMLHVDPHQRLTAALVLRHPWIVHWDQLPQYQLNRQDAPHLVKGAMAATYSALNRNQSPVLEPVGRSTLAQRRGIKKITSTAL
Method: as §1

MSK1 = MSK1 (Homo sapiens, UniProt O75582); test: Kinase panel: MSK1; format: biochemical, human/mammalian; details: compound at 10 μM, read-out: % of activity respect of the control
MSK1, sequence (O75582 whole entry): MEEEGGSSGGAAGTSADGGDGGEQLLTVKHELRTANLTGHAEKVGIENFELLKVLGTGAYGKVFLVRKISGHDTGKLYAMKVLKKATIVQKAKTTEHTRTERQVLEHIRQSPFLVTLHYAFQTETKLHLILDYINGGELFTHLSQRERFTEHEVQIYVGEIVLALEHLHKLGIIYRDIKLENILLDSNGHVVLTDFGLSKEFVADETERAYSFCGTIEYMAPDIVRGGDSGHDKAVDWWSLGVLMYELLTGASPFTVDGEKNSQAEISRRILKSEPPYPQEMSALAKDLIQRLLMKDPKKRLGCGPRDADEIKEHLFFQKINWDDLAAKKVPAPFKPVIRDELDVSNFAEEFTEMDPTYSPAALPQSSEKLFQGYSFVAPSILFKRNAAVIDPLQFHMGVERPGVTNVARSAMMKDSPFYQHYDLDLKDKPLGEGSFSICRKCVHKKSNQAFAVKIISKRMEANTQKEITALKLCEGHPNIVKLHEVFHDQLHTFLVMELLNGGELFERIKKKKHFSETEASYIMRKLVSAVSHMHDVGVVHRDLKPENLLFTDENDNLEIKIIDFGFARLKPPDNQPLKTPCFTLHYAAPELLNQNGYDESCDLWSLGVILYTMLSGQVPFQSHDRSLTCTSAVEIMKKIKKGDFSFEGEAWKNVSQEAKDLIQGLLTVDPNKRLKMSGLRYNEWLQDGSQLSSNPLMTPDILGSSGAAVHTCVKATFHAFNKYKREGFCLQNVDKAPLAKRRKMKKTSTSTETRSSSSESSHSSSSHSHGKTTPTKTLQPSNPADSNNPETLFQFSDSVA
Method: as §1

PHK = test: Kinase panel: PHK; format: biochemical, human/mammalian; details: compound at 10 μM
Method: as §1

GSK3b = GSK3b (Homo sapiens, UniProt P49841); test: Kinase panel: GSK3b; format: biochemical, human/mammalian; details: compound at 10 μM, read-out: % of activity respect of the control
GSK3b, sequence (P49841 whole entry): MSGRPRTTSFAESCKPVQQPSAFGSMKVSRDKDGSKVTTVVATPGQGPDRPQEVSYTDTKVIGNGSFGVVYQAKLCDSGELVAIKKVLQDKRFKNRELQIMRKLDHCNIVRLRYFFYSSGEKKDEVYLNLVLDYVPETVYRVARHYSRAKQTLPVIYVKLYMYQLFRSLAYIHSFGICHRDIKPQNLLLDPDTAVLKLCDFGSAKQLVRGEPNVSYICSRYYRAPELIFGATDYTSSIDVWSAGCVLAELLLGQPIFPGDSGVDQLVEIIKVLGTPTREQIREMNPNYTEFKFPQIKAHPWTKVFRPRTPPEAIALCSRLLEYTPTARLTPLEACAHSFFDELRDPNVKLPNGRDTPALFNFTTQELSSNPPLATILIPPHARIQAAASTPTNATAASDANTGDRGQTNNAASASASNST
Method: as §1

HIPK2 = HIPK2 (Homo sapiens, UniProt Q9H2X6); test: Kinase panel: HIPK2; format: biochemical, human/mammalian; details: compound at 10 μM, read-out: % of activity respect of the control
HIPK2, sequence (Q9H2X6 whole entry): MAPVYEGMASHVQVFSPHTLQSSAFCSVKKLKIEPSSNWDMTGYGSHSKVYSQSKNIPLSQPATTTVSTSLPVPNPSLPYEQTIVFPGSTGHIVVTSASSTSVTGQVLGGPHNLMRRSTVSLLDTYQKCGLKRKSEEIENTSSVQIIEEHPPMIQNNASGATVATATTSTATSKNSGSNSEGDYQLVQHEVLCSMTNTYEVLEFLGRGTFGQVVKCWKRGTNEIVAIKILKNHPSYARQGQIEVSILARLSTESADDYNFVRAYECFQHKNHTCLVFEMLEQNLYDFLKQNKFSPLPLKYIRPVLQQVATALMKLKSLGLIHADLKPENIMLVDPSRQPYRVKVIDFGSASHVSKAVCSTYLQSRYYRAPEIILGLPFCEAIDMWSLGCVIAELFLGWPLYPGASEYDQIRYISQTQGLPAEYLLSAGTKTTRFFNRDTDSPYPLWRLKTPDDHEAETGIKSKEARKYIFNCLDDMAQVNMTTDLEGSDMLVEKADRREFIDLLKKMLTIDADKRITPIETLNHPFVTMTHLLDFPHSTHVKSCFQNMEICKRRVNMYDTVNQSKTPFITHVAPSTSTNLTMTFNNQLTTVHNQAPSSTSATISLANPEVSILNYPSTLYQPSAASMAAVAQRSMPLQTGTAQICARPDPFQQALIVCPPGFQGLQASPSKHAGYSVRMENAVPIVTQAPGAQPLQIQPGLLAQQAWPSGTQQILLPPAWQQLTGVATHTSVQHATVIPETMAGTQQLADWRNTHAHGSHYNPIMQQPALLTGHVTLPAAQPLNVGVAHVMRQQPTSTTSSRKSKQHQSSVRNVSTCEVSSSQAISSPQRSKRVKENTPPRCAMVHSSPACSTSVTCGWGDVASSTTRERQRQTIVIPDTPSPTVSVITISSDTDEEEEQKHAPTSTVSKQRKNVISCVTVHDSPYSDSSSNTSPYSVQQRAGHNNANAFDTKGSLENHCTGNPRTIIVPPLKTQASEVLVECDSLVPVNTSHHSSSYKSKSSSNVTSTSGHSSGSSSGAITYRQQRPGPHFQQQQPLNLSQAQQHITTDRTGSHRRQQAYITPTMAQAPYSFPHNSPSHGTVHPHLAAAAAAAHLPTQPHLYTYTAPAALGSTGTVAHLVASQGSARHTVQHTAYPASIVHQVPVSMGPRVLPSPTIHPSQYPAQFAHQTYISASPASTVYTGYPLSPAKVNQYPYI
Method: as §1

[3] = ip, 20 mg kg^−1, female NMRI mice
[4] = po, 20 mg kg^−1, female NMRI mice
[5] = po, 5 mg kg^−1, female NMRI mice

| SMILES | EC50 (T. b. brucei; Trypanosoma brucei) [nM] | protein binding (unbound) [1] [% unbound] | remaining activity at 10 µM (P38b MAPK) [%] | remaining activity at 10 µM (RSK2) [%] | remaining activity at 10 µM (MSK1) [%] | % of activity respect of the control (PHK) [%] | remaining activity at 10 µM (GSK3b) [%] | remaining activity at 10 µM (HIPK2) [%] | also measured |
| --- | --- | --- | --- | --- | --- | --- | --- | --- | --- |
| O=c1[nH]c2ncc(-c3ccccc3CO)nc2n1C1CCCCC1 [Compound 28] | 50 | 7.2 | – | – | – | – | – | – | EC50 (T. b. brucei): 46 nM; fraction unbound at 5 h, 10 μg g^−1 ([1]; female, CD1, equilibrium dialysis, read-out: PPB): 0.072; PPB ([1]; equilibrium dialysis): 7.2 % free; time to reach Cmax ([2]; dosed orally, 20 mg kg^−1): 15 min; Tmax ([2]; ip, 20 mg/kg, 20 mg kg^−1, female NMRI mice): 0.083 h; Tmax ([2]; po, 20 mg/kg, 20 mg kg^−1, female NMRI mice): 0.25 h; Cmax [2, 3]: 5200 ng/mL; half-life [2, 3]: 1.2 h; AUC(0-t) [2, 3]: 3830 ng·h/mL; Cmax [2, 4]: 910 ng/mL; half-life [2, 4]: 1.7 h; AUC(0-t) [2, 4]: 1150 ng·h/mL |
| C[C@H](c1ccccc1)n1c(=O)[nH]c2ncc(-c3ccccc3)nc21 [Compound 14, (R)-6-Phenyl-1-(1-phenylethyl)-1H-imidazo[4,5-b]pyrazin-2(3H)-one] | 100 | – | 95 | 101 | 93 | 94 | 66 | 80 | – |
| O=c1[nH]c2ncc(-c3ccc(F)cc3)nc2n1C1CCCCC1 [Compound 12, 1-Cyclohexyl-6-(4-fluorophenyl)-1H-imidazo[4,5-b]pyrazin-2(3H)-one] | 30 | – | 122 | 104 | 97 | 110 | 70 | 97 | – |
| O=c1[nH]c2ncc(-c3ccc(F)cc3)nc2n1CC1CC1 [Compound 10] | 300 | – | 101 | 113 | 89 | 97 | 37 | 69 | – |
| CC(c1ccccc1)n1c(=O)[nH]c2ncc(-c3ccc(F)cc3)nc21 (centres unmarked) [Compound 1] | 80 | 0.3 | 84 | 110 | 89 | 103 | 63 | 101 | Tmax ([2]; po, 5 mg/kg, 5 mg kg^−1, female NMRI mice): ~2 h; Cmax [2, 5]: 110 ng/mL; half-life [2, 5]: 3 h; AUC(0-t) [2, 5]: 600 ng·h/mL |
